# Measurements taken from US20150181901A1, “Compositions and Methods for Tissue Storage” (priority 2012, published 2015).
# “And” between values parts separate entries of the source, which are not always exact repeats. Equal entries are not always repeated.
# Tests used:
# [1] = Freeze/thaw cycling of meat soaked in trehalose solution: fluid loss and weight loss (chicken)
# Procedure: (§1) Variables included the high and low temperatures of the temperature range, and frequency of the freeze/thaw cycles. In one embodiment, treated meat samples were placed in a minus 40 degrees C. freezer for 24 hours, followed by room temperature for 6 hours, which was followed by 18 hours at 0.5 to 5.0 degrees C., in a refrigerator. This cycle was immediately followed by minus 40 degrees C. freezer for 24 h, room temperature for 6 h, which was followed by 18 hours at 0.5 to 5.0 degrees C., in a refrigerator. Chicken breast fillet, pork chops, and London broil beef, were obtained from local suppliers and were cut in water. Each type of meat was cut into four even-sized pieces, and the weight was recorded. Each piece was immersed separately in either water or in test solution, e.g., trehalose or saline, for 12 h. The meat was removed from the water, and excess water was blotted off. Place each sample in a Ziploc® plastic bag. Weights were recorded. The weighed samples were set in a container, and placed in a freezer, where each sample was at the same level (same level relative to the floor of the freezer). The freezer (minus 40 degrees C.) was Puffer Hubbard Model #4017A-U-A, Harris Manufacturing Co., North Billerica, Mass. […] Then, the following steps were used: Repeat Steps 1 to 4 until a total of 14 days have passed. Step 1. After 24 h in the freezer, remove the container bearing all of the samples. Take photographs of the samples and record the date. Thawing occurs when the meat is taken from the freezer and left in the refrigerator. Although the meat is completely thawed prior to 24 hours of incubation in the refrigerator, the time of 24 hours was used to standardize the procedure. Step 2. Place all samples (still in the same container) in refrigerator. Step 3. After in the refrigerator 24 h, then remove the container with all the samples, and take photos and record the date. Step 4. Place samples, still in the same container, in the freezer. As mentioned above, repeat Steps 1 to 4 until a total of 14 days have passed. Step 5. After the last sample photos were taken, samples were removed from its bag, and the weight was recorded after removing excess ice from the sample. The ice is left in the bag. Replace sample in Ziploc® bag. Place all bags at room temperature until all the ice has melted, and pour fluid into clear plastic tube with graduated side (fluid from each bag), and record the volumes of the fluid. Alternatively, volume can be determined with a pipette. Step 6. Place all weighed meat samples into the same Ziploc® bag, and place back in the refrigerator to thaw. After thawing, remove the meat samples from each bag, and pour excess fluid into graduated cylinder tubes (the tubes that held the ice that had melted), and record additional volumes. Between the first week (three freeze/thaw cycles) and the second week (three more freeze/thaw cycles), there was no re-exposure to trehalose. All samples were removed from the refrigerator. Liquid was in most of the sample bags. Fluid was removed by a pipette and the volume was recorded, and the meat sample was weighed. Samples of about 1-2 grams were taken using a no. 10 scalpel, and placed in formalin. FIG. 6 discloses the volume of fluid lost during the second week of freeze/thaw cycles.
# [2] = Freeze/thaw cycling of meat soaked in trehalose solution: fluid loss and weight loss (pork); conditions: for weight loss: post 3 freeze/thaw cycles, first week (FIG. 4), 0% trehalose about 10%
# Procedure: as §1
# [3] = Freeze/thaw cycling of meat soaked in trehalose solution: fluid loss and weight loss (beef); conditions: for weight loss: post 3 freeze/thaw cycles, first week (FIG. 4), 0% trehalose about 18%
# Procedure: as §1
# [4] = 0%, 5%, 10%, 15% trehalose, three freeze/thaw cycles, first week (FIG. 1)
# [5] = cumulative, first and second week (FIG. 12)
# [6] = second week of freeze/thaw cycles (FIG. 8)
# [7] = second week of freeze/thaw cycles, no re-exposure to trehalose
compound,measurement,setting,value
"OC[C@H]1O[C@H](O[C@H]2O[C@H](CO)[C@@H](O)[C@H](O)[C@H]2O)[C@H](O)[C@@H](O)[C@@H]1O [trehalose, trehalose dihydride]",loss of water/10 grams of meat,"[1]; chicken, 15% trehalose, first week (FIG. 5), 0% trehalose about 1.8",0.47 mL/10 grams of meat
same,trehalose concentration with maximal effect on cumulative weight loss,"[1]; chicken, cumulative, first and second week (FIG. 12)",15%
same,effect of trehalose on weight loss,"[1]; chicken, first week (FIG. 17)","reduction was about the same (plateau in trehalose effect) for 5%, 10%, and 15% trehalose"
same,effect of trehalose on weight loss,"[1]; chicken, second week (FIG. 17)",weight reduction by trehalose was only found at 10% and 15% trehalose
same,trehalose concentration with lowest weight loss,"[1]; chicken, second week of freeze/thaw cycles (FIG. 8)",15%
same,trehalose concentration with maximal effect on reducing fluid loss,"[1]; chicken, second week of freeze/thaw cycles, no re-exposure to trehalose",15%
same,weight loss,"[1]; chicken, soaked in 5%, 10%, or 15% trehalose, post-soak weight vs post 3 freeze/thaw cycles, first week (FIG. 4), 0% trehalose 18%",10-11%
same,effect of trehalose concentration on volume of fluid lost,"[1]; poultry, 0%, 5%, 10%, 15% trehalose, three freeze/thaw cycles, first week (FIG. 1)",Increasing the concentration of trehalose resulted in decreasing volumes of fluid lost
same,effect of trehalose concentration on volume of fluid lost,[2]; [4],Increasing the concentration of trehalose resulted in decreasing volumes of fluid lost
same,loss of water/10 grams of meat,"[2]; 15% trehalose, first week (FIG. 5), 0% trehalose 1.0",0.4 mL/10 grams of meat
same,trehalose concentration with maximal effect on cumulative weight loss,[2]; [5],15%
same,effect of trehalose on weight loss,[2]; first week (FIG. 18),"reduction was progressively effective for 5%, 10%, and 15% trehalose"
same,effect of trehalose on weight loss,[2]; second week (FIG. 18),weight reduction seemed to plateau when trehalose was in the range of 5-15% trehalose
same,trehalose concentration with lowest weight loss,[2]; [6],5% (or 15%)
same,trehalose concentration with maximal effect on reducing fluid loss,[2]; [7],15%
same,weight loss,[2]; soaked in 5% trehalose,about 9%
same,weight loss,[2]; soaked in 10% trehalose,about 8%
same,weight loss,[2]; soaked in 15% trehalose,about 5%
same,effect of trehalose concentration on volume of fluid lost,[3]; [4],Increasing the concentration of trehalose resulted in decreasing volumes of fluid lost
same,loss of water/10 grams of meat,"[3]; 10% trehalose, first week (FIG. 5), 0% trehalose about 1.8",about 0.9 mL/10 grams of meat
same,fluid loss for the first week relative to fluid loss for the second week,[3]; at each respective trehalose value (FIG. 16),2-3 times
same,trehalose concentration with maximal reduction in cumulative fluid loss,"[3]; cumulative, first and second week",10% and 10-15%
same,trehalose concentration with maximal effect on cumulative weight loss,[3]; [5],10% and 10-15%
same,effect of trehalose on weight loss,[3]; first week (FIG. 19),"reduction was progressively effective for 5%, 10%-15% trehalose"
same,effect of trehalose on weight loss,[3]; second week (FIG. 19),weight reduction seemed to plateau when trehalose was in the range of 5-15% trehalose
same,trehalose concentration with lowest weight loss,[3]; [6],15%
same,trehalose concentration with maximal effect on reducing fluid loss,[3]; [7],10%
same,weight loss,[3]; soaked in 5% trehalose,~15%
same,weight loss,[3]; soaked in 10% trehalose,about 8%
same,weight loss,[3]; soaked in 15% trehalose,about 10%
